{
  "source": "patent US20180142211A1",
  "about": "“METHODS OF MESENCHYMAL STEM CELL MOBILIZATION AND EXPANSION” (Biokine Therapeutics Ltd, priority 2015, published 2018)",
  "key": {"MSCs": {"test_system": "MSCs", "conditions": "without cytokines such as PDGF, VEGF, IGF-1 or SCF; cited from earlier work"}, "[1]": {"test_system": "T cells, B cells and NK cells", "experiment": "Phase I study: FACS analysis of lymphocyte mobilization", "format": "in vivo, human", "from_the_text": "(§1) Mean CD34+ count at baseline was 5.81/μL."}, "[2]": {"test_system": "long term repopulating cells", "conditions": "mice, single injection; cited from earlier work"}, "[3]": {"conditions": "human, in vivo", "description": "To test the effect of BL-8040 (SEQ ID NO: 1) on mesenchymal stem cell mobilization a two-part study was performed. The first part of the study was randomized, double-blind, placebo-controlled dose escalation study. In each cohort, six volunteers were administrated twice (altogether) on day one and two with BL-8040 (First cohort 0.5 mg/kg, Second cohort 0.75 mg/kg and Third 1.0 mg/kg) and 2 were administrated with placebo. […] BL-8040's safety, tolerability and pharmacokinetic profile were also evaluated on this part."}, "CXCR4 [4]": {"molecular_target": "T1, CXCR4 (Homo sapiens, UniProt P61073)", "experiment": "Phase I study: receptor occupancy and pharmacodynamic effect", "format": "in vivo", "set-up": "endogenous in cells; host or cells: peripheral blood cells (CD34+, lymphocyte, mononuclear populations) of healthy volunteers", "conditions": "post dosing", "from_the_text": "as §1"}, "[5]": {"test_system": "Mesenchymal Stem Cells (MSCs)", "experiment": "Phase I study: MSC mobilization, MesenCult assay", "format": "in vivo, human", "conditions": "for MSC mobilization into peripheral blood, single agent: MesenCult", "experimental": "To evaluate the number of MSCs in the blood, a MesenCult assay was used at different time points following BL-8040 administration (0.75 mg/Kg FIGS. 1-2, or 1 mg/Kg FIGS. 3-4)) to healthy subjects-as described above.\nWhite blood cells (WBCs) obtained from 100 μl blood, were plated in MesenCult medium (2 ml).\nThe number of MSCs colonies and MS cells were visually scored 15 days later, using a light microscope, and the frequency of MSC colonies and MSCs was calculated."}, "CD34 (+) cells": {"test_system": "CD34 (+) cells", "conditions": "MM patients, combined with G-CSF, single administration; cited from earlier work"}, "HSC (CD34+ cells)": {"test_system": "HSC (CD34+ cells)", "experiment": "Phase I study: mobilization of HSC (CD34+ cells)", "format": "in vivo, human", "from_the_text": "as §1"}, "HPC colony forming cells": {"test_system": "HPC colony forming cells", "experiment": "Phase I study: HPC colony forming cell mobilization", "format": "in vivo, human", "conditions": "4-8 hr post injection", "from_the_text": "as §1"}, "CXCR4 [6]": {"molecular_target": "T1, CXCR4", "conditions": "cited from earlier work"}, "white blood cells (WBC)": {"test_system": "white blood cells (WBC)", "experiment": "Phase I study: WBC mobilization to peripheral blood", "format": "in vivo, human", "conditions": "4 hours post dose, baseline 6.31", "from_the_text": "as §1"}},
  "note": "“Also recorded” adds a separate entry of the source.",
  "data": [
    {"compound": "c1cc(CN2CCCNCCNCCCNCC2)ccc1CN1CCCNCCNCCCNCC1", "note": "[AMD3100]", "values": [
      {"measurement": "MSC mobilization by the agent alone", "setting": "MSCs", "result": "not sufficient to mobilize MSCs"}
    ]},
    {"compound": "4F-benzoyl-Arg-Arg-Nal-Cys-Tyr-Cit-Lys-DLys-Pro-Tyr-Arg-Cit-Cys-Arg-NH2 [BL-8040]", "values": [
      {"measurement": "mobilization of T cells, B cells and NK cells", "setting": "[1]", "result": "substantial mobilization"},
      {"measurement": "mobilization of long term repopulating cells for transplantation", "setting": "[2]", "result": "sufficient to mobilize enough long term repopulating cells for transplantation"},
      {"measurement": "appearance in plasma", "setting": "[3]", "result": "rapid"},
      {"measurement": "half-life", "setting": "[3]", "result": "short"},
      {"measurement": "duration of receptor occupancy and pharmacodynamics effect", "setting": "CXCR4 [4]", "result": "≥ 24", "unit": "h"},
      {"measurement": "mobilization of Mesenchymal Stem Cells (MSCs)", "setting": "[5]; 4-8 hr post injection", "result": "rapid mobilization of MSCs"},
      {"measurement": "MSC mobilization into peripheral blood, single agent", "setting": "[5]; Cohort 2 (0.75 mg/Kg), 15 days culture (FIGS. 1-2), 0.75 mg/kg", "result": "mobilizes mesenchymal stem cells (MSCs) into peripheral blood (PB); also recorded: mobilizes MSCs into the PB"},
      {"measurement": "MSC mobilization into peripheral blood, single agent", "setting": "[5]; Cohort 3 (1 mg/Kg), 15 days culture (FIGS. 3-4), 1 mg/kg", "result": "mobilizes mesenchymal stem cells (MSCs) into peripheral blood (PB); also recorded: mobilizes MSCs into the PB"},
      {"measurement": "stem cell mobilization (CD34 (+) cell collection in one aphaeresis procedure)", "setting": "CD34 (+) cells", "result": "efficient stem cell mobilizer"},
      {"measurement": "mean CD34 count", "setting": "HSC (CD34+ cells); 0.5 mg/kg, 4 hour post the second dose, placebo 9", "result": 38, "unit": "µL⁻¹"},
      {"measurement": "mean CD34 count", "setting": "HSC (CD34+ cells); 0.5 mg/kg, four hours post dose, baseline 5.81/μL, placebo 8", "result": 37, "unit": "µL⁻¹"},
      {"measurement": "mean CD34 count", "setting": "HSC (CD34+ cells); 0.75 mg/kg, 4 hour post the second dose, placebo 9", "result": 46, "unit": "µL⁻¹"},
      {"measurement": "mean CD34 count", "setting": "HSC (CD34+ cells); 0.75 mg/kg, four hours post dose, baseline 5.81/μL, placebo 8", "result": 31, "unit": "µL⁻¹"},
      {"measurement": "mean CD34 count", "setting": "HSC (CD34+ cells); 1 mg/kg, 4 hour post the second dose, placebo 9", "result": 58, "unit": "µL⁻¹"},
      {"measurement": "CD34+ count in all subjects", "setting": "HSC (CD34+ cells); 1 mg/kg, 4 hours post single administration, all subjects", "result": "more than 20 CD34+/μL"},
      {"measurement": "mean CD34 count", "setting": "HSC (CD34+ cells); 1 mg/kg, four hours post dose, baseline 5.81/μL, placebo 8", "result": 35, "unit": "µL⁻¹"},
      {"measurement": "mobilization of HSC (CD34+ cells)", "setting": "HSC (CD34+ cells); across all doses tested", "result": "Dramatic mobilization"},
      {"measurement": "mobilization of HPC colony forming cells", "setting": "HPC colony forming cells", "result": "rapid mobilization"},
      {"measurement": "off-rate of the receptor", "setting": "CXCR4 [6]", "result": "slow off-rate"},
      {"measurement": "Kd", "setting": "CXCR4 [6]; high affinity, read-out: affinity of binding to CXCR4", "result": "1 to 2", "unit": "nM"},
      {"measurement": "mean WBC count", "setting": "white blood cells (WBC)", "result": "2.968e+10", "unit": "L⁻¹"}
    ]}
  ]
}
